Test results published in patent US20170074857A1, “MEDICATION ADHERENCE MONITORING DEVICE” (UNIVERSITY OF FLORIDA RESEARCH FOUNDATION, INC., priority 2014, published 2017).

Assay: Example 4a: noncompartmental pharmacokinetics of exhaled 2-butanone and 2-pentanone by mGC;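 for TThresh: time until breath level first exceeds the mGC detection limit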
Format: in vivo, human
Source text: Test Materials. […] 2-butanol was purchased from Penta Manufacturing Company (Fairfield, N.J.). 2-pentanol and L-carvone were purchased from Sigma-Aldrich (St. Louis, Mo.). […] 2-pentanone was also used as a taggant, but we hypothesized that its inherent volatility would allow exhalation without need for metabolism. L-carvone tastes like spearmint and was used as a flavor mask. All capsules were filled on the day of the experiment.
Subject Enrollment and Protocol. This protocol (20100140) was approved by the Western Institutional Review Board (Olympia, Wash.). Healthy subjects (n=5) aged >18 years of age and of either sex were recruited. Informed, written consent was obtained from all enrolled subjects. The study consisted of a single experimental limb with six replicates per subject. Therefore, for five subjects with six replicated experiments, a total of 30 studies were performed. Subjects were free to eat ad lib prior to participation in the study. At commencement of the experiments, subjects provided a baseline breath sample (designated time 0 min) into the mGC for analysis as described subsequently. Then, subjects orally consumed the previously detailed capsule with 177 mL (6 ounces) of water. Following ingestion, we observed the breath concentration-time relationships of 2-butanone and 2-pentanone by collecting single-breath samples at times 5, 10, 15, 20, 30, 45, and 60 min. After 60 min, the experiment was concluded. After at least one day's respite, subjects returned for replicate experiments on five additional occasions.
2-Butanone and 2-Pentanone Measurement in Human Breath by mGC. Breath specimens were analyzed “real-time” to measure the concentrations of 2-butanone and 2-pentanone using the mGC (Xhale, Inc. Gainesville, Fla.) as previously described. In brief, a mouthpiece (FST®, Intoximeters, Inc., St. Louis, Mo.) was attached to the inlet of the mGC. A 15 mL side-stream sample was aspirated during a single exhalation over 5 s through this inlet port to a room temperature concentrator trap containing 4 mg of Tenax TA (Sigma-Aldrich). The trap temperature was then increased to 130° C. and the volatile components transferred to a 5 m by 0.53 mm internal diameter, metal clad, BAC-1 capillary column (Restek Corp, Bellefonte, Pa.) operated at 55° C. The effluent from the column then flowed to the metal oxide detectors. Separation of the markers from other volatile organic compounds present in the sample (i.e., acetone and isoprene) occurred in approximately 2 min. Data were tabulated and graphically presented over time to determine the concentrations of 2-butanone and 2-pentanone in a given breath specimen. Data are reported in parts-per-billion (ppb) based on molar fractions to account for differing ambient atmospheric pressures and temperature.
Pharmacokinetic Analysis. Analyte breath concentrations reported as ppb were converted to ng/mL by multiplying each concentration by the molecular weight of the respective molecule to allow proper functioning of conventional PK software for noncompartmental analysis (WinNonlin 5.2, Pharsight Corporation, St. Louis, Mo.). Estimates were generated for the following PK parameters (abbreviation, unit): first-order elimination rate constant (Lambda Z, min-1), half-life of elimination (Half-life, min), maximal drug concentration (CMAX, μg/mL), time at maximal drug concentration (TMAX, min), area under concentration versus time curve from zero to the last time point (AUC0-LAST, min*μg/mL), area under concentration versus time curve from zero to infinity (AUC0-∞, min*μg/mL), percentage of area under concentration versus time curve from zero to infinity, which is extrapolated from AUC0-t (% AUC Extrap) and the mean residence time (MRT, min). The area under concentration versus time curve (AUC) was calculated using the linear trapezoidal rule. All values are reported separately for each subject as mean±standard deviation following conversion from ng/mL to ppb. […]

In the case of CCC(C)=O [Formulation 2-butanone, 2-butanone], the “% AUC Extrap” value (30 observations) was 17.9%, the AUC0-8 (30 observations) was 51190 min · ppb and the AUC0-LAST (30 observations) was 41820 min · ppb. It also gave a CMAX (30 observations) of 1376 ppb, a Half-life (30 observations) of 216 min and an LAMBDA_Z (30 observations) of 0.036 min⁻¹. The MRT0-last (30 observations) was 25.7 min, the TMAX (30 observations) was 17.8 min and the “% AUC Extrap” value (REPLICATE 1) was 41.3%. The AUC0-LAST (REPLICATE 1) was 53278 min · ppb, the “AUC0-∞” value (REPLICATE 1) was 64618 min · ppb and the CMAX (REPLICATE 1) was 1793 ppb. It also gave a Half-life (REPLICATE 1) of 21.1 min, an LAMBDA_Z (REPLICATE 1) of 0.036 min⁻¹ and an MRT0-last (REPLICATE 1) of 24.4 min. The TMAX (REPLICATE 1) was 15.0 min, the TThresh (REPLICATE 1, same 5 subjects) was 5.0 min and the “% AUC Extrap” value (REPLICATE 2) was 47.3%. The AUC0-LAST (REPLICATE 2) was 44693 min · ppb, the “AUC0-∞” value (REPLICATE 2) was 58070 min · ppb and the CMAX (REPLICATE 2) was 1361 ppb. It also gave a Half-life (REPLICATE 2) of 24.1 min, an LAMBDA_Z (REPLICATE 2) of 0.033 min⁻¹ and an MRT0-last (REPLICATE 2) of 28.3 min. The TMAX (REPLICATE 2) was 21.0 min, the TThresh (REPLICATE 2) was 7.0 min and the “% AUC Extrap” value (REPLICATE 3) was 31.3%. For the same molecule, the AUC0-LAST (REPLICATE 3) was 36508 min · ppb, the “AUC0-∞” value (REPLICATE 3) was 42226 min · ppb and the CMAX (REPLICATE 3) was 1175 ppb. It also gave a Half-life (REPLICATE 3) of 16.4 min, an LAMBDA_Z (REPLICATE 3) of 0.048 min⁻¹ and an MRT0-last (REPLICATE 3) of 24.8 min. For the same molecule, the TMAX (REPLICATE 3) was 17.0 min, the TThresh (REPLICATE 3) was 6.0 min and the “% AUC Extrap” value (REPLICATE 4) was 37.3%. The AUC0-LAST (REPLICATE 4) was 44467 min · ppb, the “AUC0-∞” value (REPLICATE 4) was 52141 min · ppb and the CMAX (REPLICATE 4) was 1449 ppb. It also gave a Half-life (REPLICATE 4) of 21.2 min, an LAMBDA_Z (REPLICATE 4) of 0.038 min⁻¹ and an MRT0-last (REPLICATE 4) of 23.9 min. The TMAX (REPLICATE 4) was 19.0 min, the TThresh (REPLICATE 4) was 6.0 min and the “% AUC Extrap” value (REPLICATE 5) was 54.6%. For the same molecule, the AUC0-LAST (REPLICATE 5) was 37792 min · ppb, the “AUC0-∞” value (REPLICATE 5) was 491783 min · ppb and the CMAX (REPLICATE 5) was 1227 ppb. The Half-life (REPLICATE 5) was 27.7 min, the LAMBDA_Z (REPLICATE 5) was 0.026 min⁻¹ and the MRT0-last (REPLICATE 5) was 26.6 min. For the same molecule, the TMAX (REPLICATE 5) was 15.0 min, the TThresh (REPLICATE 5) was 7.0 min and the “% AUC Extrap” value (REPLICATE 6) was 39.2%. For the same molecule, the AUC0-LAST (REPLICATE 6) was 34184 min · ppb, the “AUC0-∞” value (REPLICATE 6) was 40905 min · ppb and the CMAX (REPLICATE 6) was 1251 ppb. The Half-life (REPLICATE 6) was 18.9 min, the LAMBDA_Z (REPLICATE 6) was 0.037 min⁻¹ and the MRT0-last (REPLICATE 6) was 26.5 min. For the same molecule, the TMAX (REPLICATE 6) was 20.0 min, the TThresh (REPLICATE 6) was 6.0 min and the “% AUC Extrap” value (SUBJECT 1) was 22.6%. For the same molecule, the AUC0-LAST (SUBJECT 1) was 45298 min · ppb, the “AUC0-∞” value (SUBJECT 1) was 59106 min · ppb and the CMAX (SUBJECT 1) was 1297 ppb. It also gave a Half-life (SUBJECT 1) of 22.6 min, an LAMBDA_Z (SUBJECT 1) of 0.033 min⁻¹ and an MRT0-last (SUBJECT 1) of 29.3 min. For the same molecule, the TMAX (SUBJECT 1) was 21.7 min, the TThresh (SUBJECT 1, six replicates) was 6.7 min and the “% AUC Extrap” value (SUBJECT 2) was 19.2%. The AUC0-LAST (SUBJECT 2) was 66466 min · ppb, the “AUC0-∞” value (SUBJECT 2) was 82628 min · ppb and the CMAX (SUBJECT 2) was 1926 ppb. The Half-life (SUBJECT 2) was 20.6 min, the LAMBDA_Z (SUBJECT 2) was 0.034 min⁻¹ and the MRT0-last (SUBJECT 2) was 27.7 min. The TMAX (SUBJECT 2) was 20.8 min, the TThresh (SUBJECT 2) was 5.0 min and the “% AUC Extrap” value (SUBJECT 3) was 23.2%. For the same molecule, the AUC0-LAST (SUBJECT 3) was 19608 min · ppb, the “AUC0-∞” value (SUBJECT 3) was 25623 min · ppb and the CMAX (SUBJECT 3) was 1021 ppb. For the same molecule, the Half-life (SUBJECT 3) was 30.7 min, the LAMBDA_Z (SUBJECT 3) was 0.024 min⁻¹ and the MRT0-last (SUBJECT 3) was 22.7 min. For the same molecule, the TMAX (SUBJECT 3) was 11.7 min, the TThresh (SUBJECT 3) was 5.8 min and the “% AUC Extrap” value (SUBJECT 4) was 12.6%. For the same molecule, the AUC0-LAST (SUBJECT 4) was 68147 min · ppb, the “AUC0-∞” value (SUBJECT 4) was 77593 min · ppb and the CMAX (SUBJECT 4) was 2238 ppb. It also gave a Half-life (SUBJECT 4) of 16.4 min, an LAMBDA_Z (SUBJECT 4) of 0.043 min⁻¹ and an MRT0-last (SUBJECT 4) of 26.2 min. For the same molecule, the TMAX (SUBJECT 4) was 18.3 min, the TThresh (SUBJECT 4) was 5.8 min and the “% AUC Extrap” value (SUBJECT 5) was 12.0%. For the same molecule, the AUC0-LAST (SUBJECT 5) was 9581 min · ppb, the “AUC0-∞” value (SUBJECT 5) was 10999 min · ppb and the CMAX (SUBJECT 5) was 398 ppb. For the same molecule, the Half-life (SUBJECT 5) was 17.5 min, the LAMBDA_Z (SUBJECT 5) was 0.046 min⁻¹ and the MRT0-last (SUBJECT 5) was 22.9 min. For the same molecule, the TMAX (SUBJECT 5) was 16.7 min, the TThresh (SUBJECT 5) was 7.5 min and the “observed CMAX range” value (across subjects) was 398-2,238 ppb. The “half life in breath” value (after oral 2-butanol (40 and 60 mg) to humans) was 11 to 22 min and the TThresh (mean of 30 observations (5 subjects, 6 replicates), oral 2-butanol 60 mg + 2-pentanone 60 mg) was 6.2 min.
